The values that follow are results of earlier work, collected in US20060233725A1, “Non-Endocrine Disrupting Cytoprotective UV Radiation Resistant Substance” (priority 2001, published 2006).

The subject of this series is cancer cells. The settings on record: recent studies on endocrine disrupting agents in sunscreen formulations.
As to `COc1ccc(C(=O)c2ccccc2)c(O)c1` [benzophenone-s], the “effect on growth of cancer cells” value is reported as “made cancer cells grow more rapidly”.

As to `CCCCC(CC)COC(=O)c1ccc(N(C)C)cc1` (centres unmarked) [octyl-dimethyl-PABA], the “effect on growth of cancer cells” value is “made cancer cells grow more rapidly”.

`CC1CC(OC(=O)c2ccccc2O)CC(C)(C)C1` (centres unmarked) [homosalate]: the “effect on growth of cancer cells” value is recorded as “made cancer cells grow more rapidly”.

Turning to `CCCCC(CC)COC(=O)C=Cc1ccc(OC)cc1` (centres unmarked) [octyl methoxycinnamate], the “effect on growth of cancer cells” value is “made cancer cells grow more rapidly”.

Consider `Cc1ccc(C=C2C(=O)C3(C)CCC2C3(C)C)cc1` (centres unmarked) [4-methylbenzylidene camphor], for which the “effect on growth of cancer cells” value was “made cancer cells grow more rapidly”.
